{"source": "patent US11787816B2", "about": "“Chlorin compound, and preparation and use thereof” (Southwest Jiaotong University, priority 2021, dated 2023)", "key": {"[1]": {"system": "human hepatocellular carcinoma huh-7 cells", "experiment": "Photosensitizer-mediated PDT, in vitro proliferation (MTT), huh-7", "type": "cell-based", "experimental": "Several kinds of tumor cells (human cervical cancer Hela cells, human hepatocellular carcinoma huh-7 cells and murine mammary carcinoma 4T1 cells) cultured in vitro from a variety of tissues were taken as cell models, so as to investigate the photodynamic effects mediated by different doses of CEFN, CEFO, Ce6 and HPPH on the three different tumor cells (n=3). The specific experimental procedures were carried out as follows.\nCells in the logarithmic growth phase were harvested and seeded in a 24-well plate. After growing to a confluence of 70-80%, the cells were randomly divided into a control group (free of drug and light irradiation), a drug group and a photodynamic group. The CEFN, CEFO, Ce6 and HPPH were added respectively in dark, and for each drug, four final concentrations 1, 2, 5, and 10 μg/mL were set with 3 replicates for each group. After the co-incubation, the groups were treated individually. Regarding the photodynamic group, the light irradiation was performed at a wavelength of 660 nm and three different light intensities, i.e., 2, 4 and 8 J/cm^2. After that, each group was digested, and were inoculated into a 96-well plate at 100 μL per well with 4 replicates for each treatment. 24 hours later, the 96-well plate was subjected to MTT assay as follows. Each well was added with 20 μL of MTT (3-4,5-dimethylthiazol-2,5-diphenyltetrazolium bromide) solution in the dark and incubated for 4 hours. The supernatant was discarded, and the residue was dissolved with 150 μL of dimethyl sulfoxide for 15 min. After that, the 96-well plate was measured by a microplate reader for the absorbance (OD value). The relative cell viability was calculated as follows: relative cell viability=OD value of experimental group/OD value of control group*100%."}, "[2]": {"system": "murine mammary carcinoma 4T1 cells", "experiment": "Antitumor activity as photosensitizers on tumor-bearing mice (two PDT treatments)", "type": "in vivo", "settings": "for Inhibitory rate (average ± SD, %) / Tumor weight (average ± SD, g): 0.25 mg/kg tail vein, two PDT treatments one week apart, 660 nm, 150 Joule/cm^2, 14 days after treatment; for Body weight At the beginning / Body weight At the end: 0.25 mg/kg, two PDT treatments, mice, in g (unit assumed)", "experimental": "The murine mammary carcinoma cells (4T1 line) were subjected to adherent culture. After growing to a confluence of 70%-80%, the cells in the culture flask were routinely digested, centrifuged and counted, and then resuspended with 0.85% normal saline to a density of 1×10^7 cells/mL. The cell suspension was injected into the left lateral middle axillary subcutaneous part of […] Bal b/c healthy mice (female, aged 6-8 weeks) at 0.1 mL/mouse. When the tumor diameter, which was observed every other day, reached 0.6-0.8 cm, the mice with well-growing tumors and no ulcers on the epidermis were selected for grouped treatment.\n(2) Mice with similar body weight and uniform tumor size are selected and randomly divided into 4 groups with 6 mice for each group. After inoculation of 4T1 cells and the tumor volume grows to 50˜80 mm^3, the mice were subjected to a first drug administration from the tail vein by group.\n6 h after the drug administration, the mice were fixed to expose the tumor growth site. As a first PDT treatment, light irradiation was performed for 8 min, using PDT-660 photodynamic therapy equipment at the laser wavelength of 660 nm and the light dose of 150 Joule/cm^2. One week later, the second PDT treatment (the dosage and lighting conditions were the same as those of the first PDT treatment) was performed. The mice were sacrificed 14 days after the treatment. The tumor was removed, weighed and recorded."}}, "data": [{"substance": "3-n-hexylaminomethyl-3-devinyl-chlorin e4 disodium salt [CEFN]", "values": [{"measurement": "cell viability (%)", "setting": "[1]; 1 μg/mL, 660 nm, 2 J/cm^2", "result": "101 ± 3", "unit": "%"}, {"measurement": "cell viability (%)", "setting": "[1]; 1 μg/mL, 660 nm, 4 J/cm^2", "result": "78 ± 3", "unit": "%"}, {"measurement": "cell viability (%)", "setting": "[1]; 1 μg/mL, 660 nm, 8 J/cm^2", "result": "90 ± 3", "unit": "%"}, {"measurement": "cell viability (%)", "setting": "[1]; 1 μg/mL, no light", "result": "97 ± 2", "unit": "%"}, {"measurement": "cell viability (%)", "setting": "[1]; 2 μg/mL, 660 nm, 2 J/cm^2", "result": "87 ± 2", "unit": "%"}, {"measurement": "cell viability (%)", "setting": "[1]; 2 μg/mL, 660 nm, 4 J/cm^2", "result": "68 ± 2", "unit": "%"}, {"measurement": "cell viability (%)", "setting": "[1]; 2 μg/mL, 660 nm, 8 J/cm^2", "result": "64 ± 3", "unit": "%"}, {"measurement": "cell viability (%)", "setting": "[1]; 2 μg/mL, no light", "result": "95 ± 3", "unit": "%"}, {"measurement": "cell viability (%)", "setting": "[1]; 5 μg/mL, 660 nm, 2 J/cm^2", "result": "61 ± 2", "unit": "%"}, {"measurement": "cell viability (%)", "setting": "[1]; 5 μg/mL, 660 nm, 4 J/cm^2", "result": "55 ± 3", "unit": "%"}, {"measurement": "cell viability (%)", "setting": "[1]; 5 μg/mL, 660 nm, 8 J/cm^2", "result": "47 ± 2", "unit": "%"}, {"measurement": "cell viability (%)", "setting": "[1]; 5 μg/mL, no light", "result": "93 ± 3", "unit": "%"}, {"measurement": "cell viability (%)", "setting": "[1]; 10 μg/mL, 660 nm, 2 J/cm^2", "result": "50 ± 2", "unit": "%"}, {"measurement": "cell viability (%)", "setting": "[1]; 10 μg/mL, 660 nm, 4 J/cm^2", "result": "12 ± 3", "unit": "%"}, {"measurement": "cell viability (%)", "setting": "[1]; 10 μg/mL, 660 nm, 8 J/cm^2", "result": "9 ± 2", "unit": "%"}, {"measurement": "cell viability (%)", "setting": "[1]; 10 μg/mL, no light", "result": "93 ± 1", "unit": "%"}, {"measurement": "Inhibitory rate (average ± SD, %)", "setting": "[2]", "result": "86.1 ± 3.5", "unit": "%"}, {"measurement": "Tumor weight (average ± SD, g)", "setting": "[2]", "result": "0.132 ± 0.032", "unit": "g"}, {"measurement": "Body weight At the beginning", "setting": "[2]", "result": "20.3 ± 0.3"}, {"measurement": "Body weight At the end", "setting": "[2]", "result": "22.4 ± 0.4"}]}, {"substance": "3-hexoxymethyl-3-devinyl-chlorin e4 disodium salt [CEFO]", "values": [{"measurement": "cell viability (%)", "setting": "[1]; 1 μg/mL, 660 nm, 2 J/cm^2", "result": "63 ± 3", "unit": "%"}, {"measurement": "cell viability (%)", "setting": "[1]; 1 μg/mL, 660 nm, 4 J/cm^2", "result": "60 ± 3", "unit": "%"}, {"measurement": "cell viability (%)", "setting": "[1]; 1 μg/mL, 660 nm, 8 J/cm^2", "result": "53 ± 3", "unit": "%"}, {"measurement": "cell viability (%)", "setting": "[1]; 1 μg/mL, no light", "result": "99 ± 2", "unit": "%"}, {"measurement": "cell viability (%)", "setting": "[1]; 2 μg/mL, 660 nm, 2 J/cm^2", "result": "58 ± 1", "unit": "%"}, {"measurement": "cell viability (%)", "setting": "[1]; 2 μg/mL, 660 nm, 4 J/cm^2", "result": "53 ± 3", "unit": "%"}, {"measurement": "cell viability (%)", "setting": "[1]; 2 μg/mL, 660 nm, 8 J/cm^2", "result": "30 ± 2", "unit": "%"}, {"measurement": "cell viability (%)", "setting": "[1]; 2 μg/mL, no light", "result": "99 ± 2", "unit": "%"}, {"measurement": "cell viability (%)", "setting": "[1]; 5 μg/mL, 660 nm, 2 J/cm^2", "result": "39 ± 2", "unit": "%"}, {"measurement": "cell viability (%)", "setting": "[1]; 5 μg/mL, 660 nm, 4 J/cm^2", "result": "24 ± 2", "unit": "%"}, {"measurement": "cell viability (%)", "setting": "[1]; 5 μg/mL, 660 nm, 8 J/cm^2", "result": "27 ± 1", "unit": "%"}, {"measurement": "cell viability (%)", "setting": "[1]; 5 μg/mL, no light", "result": "97 ± 3", "unit": "%"}, {"measurement": "cell viability (%)", "setting": "[1]; 10 μg/mL, 660 nm, 2 J/cm^2", "result": "25 ± 2", "unit": "%"}, {"measurement": "cell viability (%)", "setting": "[1]; 10 μg/mL, 660 nm, 4 J/cm^2", "result": "9 ± 1", "unit": "%"}, {"measurement": "cell viability (%)", "setting": "[1]; 10 μg/mL, 660 nm, 8 J/cm^2", "result": "7 ± 1", "unit": "%"}, {"measurement": "cell viability (%)", "setting": "[1]; 10 μg/mL, no light", "result": "93 ± 4", "unit": "%"}, {"measurement": "Inhibitory rate (average ± SD, %)", "setting": "[2]", "result": "96.9 ± 3.1", "unit": "%"}, {"measurement": "Tumor weight (average ± SD, g)", "setting": "[2]", "result": "0.029 ± 0.028", "unit": "g"}, {"measurement": "Body weight At the beginning", "setting": "[2]", "result": "20.2 ± 0.2"}, {"measurement": "Body weight At the end", "setting": "[2]", "result": "22.2 ± 0.5"}]}]}
